Measurements taken from US11618758B2, “Bicyclic and tricyclic pyrimidine tyrosine kinase inhibitors with antitubulin activity and methods of treating a patient” (Duquesne University of the Holy Spirit, priority 2011, dated 2023).

Assays:
[1] = biological target: vascular endothelial growth factor receptor (VEGFR2, Flk-1) (Homo sapiens, UniProt P35968); assay: Kinase inhibition VEGFR2; type: biochemical; conditions: comparable to sunitinib
[2] = biological target: T1, epidermal growth factor receptor (EGFR) (Homo sapiens, UniProt P00533); assay: Kinase inhibition EGFR; type: biochemical; conditions: comparable to sunitinib
T1 sequence (P00533 25-1210, species assumed): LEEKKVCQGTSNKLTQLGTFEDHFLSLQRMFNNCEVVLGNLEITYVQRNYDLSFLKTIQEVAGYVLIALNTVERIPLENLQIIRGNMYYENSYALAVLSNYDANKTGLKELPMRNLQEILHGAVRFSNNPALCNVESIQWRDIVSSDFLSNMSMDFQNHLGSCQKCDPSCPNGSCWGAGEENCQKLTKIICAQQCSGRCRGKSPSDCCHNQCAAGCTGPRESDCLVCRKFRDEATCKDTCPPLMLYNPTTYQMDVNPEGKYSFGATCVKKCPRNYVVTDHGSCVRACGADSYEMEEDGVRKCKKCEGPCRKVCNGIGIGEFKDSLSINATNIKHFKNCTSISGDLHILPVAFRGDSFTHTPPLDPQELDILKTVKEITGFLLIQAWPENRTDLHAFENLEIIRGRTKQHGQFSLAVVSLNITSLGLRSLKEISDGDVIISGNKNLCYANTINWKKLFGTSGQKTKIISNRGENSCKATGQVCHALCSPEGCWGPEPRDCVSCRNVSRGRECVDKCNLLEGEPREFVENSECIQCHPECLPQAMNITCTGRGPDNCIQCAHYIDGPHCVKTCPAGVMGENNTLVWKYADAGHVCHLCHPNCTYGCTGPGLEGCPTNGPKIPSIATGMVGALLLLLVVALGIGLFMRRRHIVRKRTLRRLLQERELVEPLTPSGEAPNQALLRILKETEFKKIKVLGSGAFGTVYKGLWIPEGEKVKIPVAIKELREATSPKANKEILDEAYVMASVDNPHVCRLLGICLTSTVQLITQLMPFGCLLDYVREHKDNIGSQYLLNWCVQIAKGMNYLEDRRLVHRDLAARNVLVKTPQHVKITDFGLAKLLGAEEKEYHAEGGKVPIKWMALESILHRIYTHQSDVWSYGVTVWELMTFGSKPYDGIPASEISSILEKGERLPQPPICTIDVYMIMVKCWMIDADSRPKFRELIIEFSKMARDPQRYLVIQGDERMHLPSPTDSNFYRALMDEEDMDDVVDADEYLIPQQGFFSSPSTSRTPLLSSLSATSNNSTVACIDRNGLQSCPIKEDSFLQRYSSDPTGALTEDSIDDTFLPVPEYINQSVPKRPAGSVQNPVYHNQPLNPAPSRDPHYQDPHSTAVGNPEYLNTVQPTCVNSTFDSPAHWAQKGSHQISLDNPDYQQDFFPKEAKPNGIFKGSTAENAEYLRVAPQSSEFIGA

[3] = biological target: platelet derived growth factor receptor-β (PDGFR-β) (Homo sapiens, UniProt P09619); assay: Kinase inhibition PDGFRβ; type: biochemical; conditions: comparable to sunitinib
Chain of platelet derived growth factor receptor-β (PDGFR-β) (P09619 33-1106, species assumed): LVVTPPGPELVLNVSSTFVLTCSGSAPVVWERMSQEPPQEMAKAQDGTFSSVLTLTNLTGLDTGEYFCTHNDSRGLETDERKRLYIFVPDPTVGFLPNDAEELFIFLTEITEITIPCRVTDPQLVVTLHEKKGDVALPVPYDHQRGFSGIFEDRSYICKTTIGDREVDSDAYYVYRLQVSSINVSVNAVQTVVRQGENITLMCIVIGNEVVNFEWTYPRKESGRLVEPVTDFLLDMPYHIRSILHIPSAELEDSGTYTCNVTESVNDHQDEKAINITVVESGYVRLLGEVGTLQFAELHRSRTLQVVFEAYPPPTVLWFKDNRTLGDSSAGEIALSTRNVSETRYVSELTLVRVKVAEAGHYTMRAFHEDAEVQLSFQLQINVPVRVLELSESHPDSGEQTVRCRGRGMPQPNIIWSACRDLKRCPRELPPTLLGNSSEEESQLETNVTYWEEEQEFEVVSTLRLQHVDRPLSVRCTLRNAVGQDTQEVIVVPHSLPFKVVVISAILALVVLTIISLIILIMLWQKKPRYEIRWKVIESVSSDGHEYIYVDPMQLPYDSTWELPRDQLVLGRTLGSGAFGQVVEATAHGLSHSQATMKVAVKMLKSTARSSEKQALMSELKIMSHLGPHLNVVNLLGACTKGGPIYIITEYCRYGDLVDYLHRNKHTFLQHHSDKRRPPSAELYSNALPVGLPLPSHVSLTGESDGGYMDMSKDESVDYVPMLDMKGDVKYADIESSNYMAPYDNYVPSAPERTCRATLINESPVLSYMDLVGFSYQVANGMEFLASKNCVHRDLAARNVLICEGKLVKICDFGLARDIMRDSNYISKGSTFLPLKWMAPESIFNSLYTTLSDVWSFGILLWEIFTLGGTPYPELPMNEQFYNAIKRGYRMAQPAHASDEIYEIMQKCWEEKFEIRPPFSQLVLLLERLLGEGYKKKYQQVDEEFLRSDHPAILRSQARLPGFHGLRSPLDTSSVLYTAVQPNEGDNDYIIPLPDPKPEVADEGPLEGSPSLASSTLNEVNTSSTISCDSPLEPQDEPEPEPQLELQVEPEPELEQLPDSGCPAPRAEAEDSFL

[4] = biological target: T1, epidermal growth factor receptor (EGFR); conditions: does not inhibit EGFR even at these concentrations; cited from earlier work

Chain of vascular endothelial growth factor receptor (VEGFR2, Flk-1) (P35968 20-1356): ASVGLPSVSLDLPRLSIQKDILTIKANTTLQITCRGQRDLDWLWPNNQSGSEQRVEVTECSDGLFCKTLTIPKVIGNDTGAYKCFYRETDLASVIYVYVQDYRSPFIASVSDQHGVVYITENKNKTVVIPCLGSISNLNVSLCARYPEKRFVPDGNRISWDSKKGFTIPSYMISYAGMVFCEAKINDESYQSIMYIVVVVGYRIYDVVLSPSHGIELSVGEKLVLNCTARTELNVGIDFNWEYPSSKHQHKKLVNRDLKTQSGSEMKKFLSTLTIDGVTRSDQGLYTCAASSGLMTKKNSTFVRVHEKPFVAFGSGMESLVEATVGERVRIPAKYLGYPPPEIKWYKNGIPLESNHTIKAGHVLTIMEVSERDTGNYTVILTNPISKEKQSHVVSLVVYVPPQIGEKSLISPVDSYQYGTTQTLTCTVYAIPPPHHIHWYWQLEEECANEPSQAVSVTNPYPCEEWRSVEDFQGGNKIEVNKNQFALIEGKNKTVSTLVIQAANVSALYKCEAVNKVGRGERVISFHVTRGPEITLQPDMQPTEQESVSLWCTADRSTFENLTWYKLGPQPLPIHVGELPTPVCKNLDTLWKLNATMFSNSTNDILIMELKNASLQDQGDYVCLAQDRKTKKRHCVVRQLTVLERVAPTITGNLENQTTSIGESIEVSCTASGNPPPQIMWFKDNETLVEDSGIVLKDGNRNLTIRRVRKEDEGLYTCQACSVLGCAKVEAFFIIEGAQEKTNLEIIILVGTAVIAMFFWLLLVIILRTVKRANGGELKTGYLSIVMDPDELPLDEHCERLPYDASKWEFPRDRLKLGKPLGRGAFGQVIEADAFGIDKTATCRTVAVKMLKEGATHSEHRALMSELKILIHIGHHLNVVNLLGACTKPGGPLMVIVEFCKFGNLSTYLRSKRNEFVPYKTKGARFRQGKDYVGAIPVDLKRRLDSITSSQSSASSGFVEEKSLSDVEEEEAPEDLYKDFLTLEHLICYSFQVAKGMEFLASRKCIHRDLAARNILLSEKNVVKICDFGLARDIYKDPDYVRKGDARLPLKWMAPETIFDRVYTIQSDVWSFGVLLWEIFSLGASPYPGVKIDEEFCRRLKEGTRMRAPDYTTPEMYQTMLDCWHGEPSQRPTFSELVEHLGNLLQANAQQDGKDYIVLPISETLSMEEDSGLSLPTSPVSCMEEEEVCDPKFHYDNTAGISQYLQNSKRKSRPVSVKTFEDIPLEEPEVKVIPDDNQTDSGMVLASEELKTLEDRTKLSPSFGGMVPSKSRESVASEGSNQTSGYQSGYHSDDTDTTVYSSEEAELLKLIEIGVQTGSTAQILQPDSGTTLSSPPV

Row | Compound | Flk-1 (VEGR2) kinase inhibition (in words, FIG. 16) [1] | EGFR kinase inhibition (in words, FIG. 16) [2] | PDGFR kinase inhibition (in words, FIG. 16) [3] | concentration at which EGFR is not inhibited [4]
1 | COc1ccc2c(c1)CCCN2c1nc(C)nc2c1[nH]c1ccccc12 [Composition 106] | potent inhibitors | potent inhibitors | potent inhibitors | –
2 | CN(C)c1ccc(/C=C2\C(=O)Nc3ccccc32)cc1 [DMBI] | – | – | – | greater than 100 μM
